According to ChEMBL document CHEMBL3407474, “Structural insight of glitazone for hepato-toxicity: Resolving mystery by PASS” (Bioorg Med Chem Lett, 2015):
The source made the active and inactive calls. The calls are words filed in the database; no cut-off is given here.

Tests used:
[1] = tested on: HepG2; assay: Induction of p53 protein level in human HepG2 cells at 50 uM by immunoblot analysis; assay type: functional, cell-based; details: TDE = time-dependent effect
[2] = tested on: HepG2; assay: Induction of p53 protein level in human HepG2 cells at 50 uM upto 24 hrs by immunoblot analysis; assay type: functional, cell-based

| SMILES | Activity [1] | Activity [2] |
| --- | --- | --- |
| Cc1c(C)c2c(c(C)c1O)CCC(C)(COc1ccc(CC3SC(=O)NC3=O)cc1)O2 (centres undefined) | tde | Active |
| CCc1ccc(CCOc2ccc(CC3SC(=O)NC3=O)cc2)nc1 (centres undefined) | – | inactive |
| CN(CCOc1ccc(CC2SC(=O)NC2=O)cc1)c1ccccn1 (centres undefined) | – | inactive |
